# What was measured:
# Assay type in all cases: cell-based
# [1] = target: T1, human GPR40 (Homo sapiens, UniProt O14842); test: FLIPR intracellular calcium assay in HEK-293 cells transiently expressing GPR40 (with G-protein cocktail); conditions: for EC50 / pEC50: Additional Fatty Acid Compounds
# From the text: The Fluorometric Imaging Plate Reader (FLIPR™, Molecular Devices, UK) measures intracellular fluorescense in multi-well microplates. Where a GPCR couples to a calcium signalling pathway, the FLIPR system can be used with cells expressing the G-protein coupled receptor and containing calcium-sensitive fluorescent dyes, to monitor the intracellular calcium flux that occurs after activation of the G-coupled receptor. See, e.g., Kirk et al., J. Biomolecular Screening, 1:75 (1996).
# (§1) The assays utilized a G-protein cocktail (+GPC) that contained chimeric and promiscuous G-proteins, as is known in the art of screening orphan G-protein coupled receptors.
# [2] = target: T1, human GPR40; test: 3X-CRE-luciferase reporter assay in CHO cells (Gs coupling); set-up: expressed in transfected cells; host or cells: wild-type CHO cells, transient co-transfection (CMV-GPR40 + 3x-CRE-Luc); conditions: CRE-Luc; cells containing reporter only and cells containing GPR40; 4 hours of treatment; Figure 3c
# Protocol: Specific coupling was determined in mammalian cells using transient expression of a CRE-luciferase reporter for Gαs and stable cell-lines containing Gal4/ELK-1-luciferase reporter for Gαq/Gαi. Wild-type CHO cells were co-transfected with 3X-CRE-luciferase reporter vector and various amounts of an expression vector for GPR40. The control cells were transfected with reporter vector only. The reporter gene plasmids were produced in house but similar vectors can be purchased from Stratagene ([…]®). Cells were plated in a 24 well tissue culture plate at 1 x 10^4 cells/well in DMEM/F12 supplemented with 5% FBS. After 72 hours at 37°C, 5% CO2, the cells were transfected using the liposomal transfection reagent sold under the trademark LIPOFECTAMINE® and with the following combinations of plasmids: • A- 3x-CRE-Luc • B- 3x-CRE-Luc + CMV-GPR40 • C- 3x-CRE-Luc + CMV-Gs coupled receptor The concentration of reporter plasmid for all wells was 0.15µg/well. Concentrations of receptor plasmids were 0.5, 1.0, 5.0, 10.0 ng/well. After 24hrs Cells containing 1ng/well of receptor plasmid or no DNA control and CRE-Luc reporter were treated with fatty acid or the calcitonin which is known to act through a Gs-coupled receptor (Chakraborty, Science 251: 1078 (1991)) at concentrations indicated. […]
# [3] = target: T1, human GPR40; test: GAL4/Elk-1 luciferase reporter assay in CHO clones transfected with human GPR40, with and without pertussis toxin; set-up: expressed in transfected cells; host or cells: wild-type CHO cells, transient co-transfection (CMV-GPR40 + 3x-CRE-Luc); conditions: cells containing GPR40, Figure 4B
# From the text: (§2) To further test the coupling of GPR40 to Gαi/Gαq a Gal4/Elk-1 reporter was used. A stable, clonal reporter line was created by transfecting CHO cells with a plasmid that contains an expression construct for GAL4/Elk-1 and a GAL4-luciferase reporter construct. A similar reporter system can now be purchased from Stratagene (under the trademark […]®). An expression construct for human GPR40 which contains a G418 resistance construct was transfected into the host CHO GAL4/Elk-1 reporter cell line (10ug plasmid DNA pCR3-GPR40) via electroporation. The cell lines were selected for with 500ug/mL G418 until all cells in the control were dead and clones were then picked. The Gal4/Elk-1 reporter can be activated through Gq or Gi. To confirm coupling via Gi, cells were treated with pertussis toxin treatment which ADP-ribosylates Gαi preventing its interaction with receptors (Bokoch et al., J. Biol. Chem 258:2072 (1983)). Pertussis toxin has no known effect on Gαq.
# (§3) Host cells and those transfected with the GPR40 construct were plated in a 96-well tissue culture plate at 2000 cells/well in DMEM/F12 supplemented with 5% FBS. After 48 hours at 37°C at 5% CO2 the cells were placed in serum-free DMEM/F12 in the presence or absence of 1ug/ml pertussis toxin. […]
# [4] = system: CHO GAL4/Elk-1 reporter cell line; test: GAL4/Elk-1 luciferase reporter assay in host CHO cells (reporter only), with and without pertussis toxin
# From the text: as §2, §3
# [5] = system: HLTEX11; test: FLIPR intracellular calcium assay in HEK-293 cells transiently expressing control 7TM receptor HLTEX11; conditions: HEK-293 cells transiently expressing HLTEX11; Figure 1
# From the text: as §1
# [6] = system: PGRW; test: FLIPR intracellular calcium assay in HEK-293 cells transiently expressing control 7TM receptor PGRW; conditions: HEK-293 cells transiently expressing PGRW; Figure 1
# From the text: as §1
# T1 sequence (O14842 whole entry): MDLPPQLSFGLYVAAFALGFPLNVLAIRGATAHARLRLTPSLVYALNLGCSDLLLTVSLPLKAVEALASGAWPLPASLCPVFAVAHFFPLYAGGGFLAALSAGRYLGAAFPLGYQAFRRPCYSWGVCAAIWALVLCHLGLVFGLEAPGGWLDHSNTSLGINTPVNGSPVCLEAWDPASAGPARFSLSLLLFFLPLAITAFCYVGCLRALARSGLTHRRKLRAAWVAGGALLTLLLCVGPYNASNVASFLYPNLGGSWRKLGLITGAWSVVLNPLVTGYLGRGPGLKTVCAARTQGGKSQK
Molecule,pEC50 ([1]; FLIPR),also measured
"CCCCC[C@H](O)[C@H](O)/C=C/C=C/C=C\C/C=C\CCCC(=O)O [14®, 15(S)-DiHETE]",4.63,EC50 ([1]; FLIPR): 23.4 µM
"CCCCCCCCCCC/C=C\C/C=C\CCCC(=O)O [Eicosa-5Z,8Z-dienoic acid]",5.11,
calcitonin,,luciferase production [2]: increase
"CCCCCCCCC#CCC#CCC#CCCCC(=O)O [5,8,11-Eicosatriynoic acid]",5.77,luciferase production [2]: no effect; effect of pertussis toxin treatment on the stimulated luciferase activity ([3]; 1ug/ml pertussis toxin): not inhibited; luciferase activity compared to basal [3]: increased; luciferase production ([4]; Figure 4B): no effect
"CCCCCCCC/C=C\CCCCCCCC(=O)OC[C@@H](O)COP(=O)(O)O [LPA, lysophosphatidic acid (oleoyl)]",,"agonist-stimulated reporter activity following pertussis toxin treatment ([4]; 1ug/ml pertussis toxin, Figures 4A, 4C): completely abolished"
"CCCCC/C=C\C/C=C\CCCCCCCCCC(=O)O [Eicosa-11Z,14Z-dienoic acid]",4.97,
"CC/C=C\C/C=C\C/C=C\CCCCCCCCCC(=O)O [Eicosa-11Z,14Z,17Z-trienoic acid]",4.95,
CCCCC/C=C\C/C=C\C/C=C\CCCCCCC(=O)O [Dihomo-gamma-linolenic acid],5.14,
"CC/C=C\C/C=C\C/C=C\CCCCCCCCCCCC(=O)O [Docosa-13Z,16Z,19Z-trienoic acid]",5.17,
CCCCC/C=C\C/C=C\C/C=C\C/C=C\CCCCCC(=O)O [Adrenic acid],4.87,EC50 ([1]; FLIPR): 13.5 µM
CCCCC/C=C\C/C=C\CCCCCCCC(=O)O [Linoleic acid],5.02,
C#CCCCCCCCCCCCCCCCC(=O)O [17-Octadecynoic acid],5.12,
CC1=C(/C=C/C(C)=C/C=C/C(C)=C/C=O)C(C)(C)CCC1 [All-trans-retinal],,"Mean pEC50 of 3 expts ([1]; mean over experiments (n=1 or n=2 where printed), FLIPR): 4.16"
CCCCCCCC/C=C\C/C=C\C/C=C\CCCC(=O)O [Mean acid],5.60,EC50 ([1]; FLIPR): 2.51 µM
"CC/C=C\C/C=C\C/C=C\C/C=C\C/C=C\CCCC(=O)O [Eicosa-5Z,8Z,11Z,14Z,17Z-pentaenoic acid]",5.17,
CCCCCCCC/C=C/CCCCCCCC(=O)O [Elaidic acid],4.87,"FLIPR response [5]: No response; FLIPR response [6]: No response; FLIPR response (intracellular calcium levels) ([1]; HEK-293 cells transiently expressing GPR40, +GPC, Figure 1): response detected"
"CC/C=C\C/C=C\C/C=C\C/C=C\C/C=C\CCCCCC(=O)O [Docosa-7Z,10Z,13Z,16Z,19Z-pentaenoic acid]",5.33,
CCCCC/C=C\C/C=C\C/C=C\C/C=C\CCCC(=O)O [Arachidonic acid],5.04,
"CCC=CCC=CCC=CCC=CCC=CC/C=C\CCC(=O)O [cis-4,7,10,13,16,19-Docosahexaenoic acid]",5.79,

# — patent EP1354200B1, “METHOD OF SCREENING FOR GPR40 LIGANDS” (priority 2000, dated 2002)
